Test results: patent US11413328B2, “Methods for treating inflammatory conditions of the lungs” (priority 2016, dated 2022)
Bridges are numbered along the chain shown (N, C = ends). Where no end group is shown, it is not given here.

Tests used:
[1] = tested on: murine house dust mite driven model of allergic asthma; test: Lung resistance and compliance, prophylactic treatment in HDM asthma model (Example 9); assay type: in vivo, BALB/c mice
Procedure: (§1) Female 7-10 weeks old BALB/c mice were randomly allocated into 5 study groups one day prior to study start and subcutaneously (SC) sensitized to house dust mite (100 μg HDM in 200 μL saline plus Freund's complete adjuvant in 0.9% saline). The mice were treated with hBD-2 orally and intranasally respectively at a dose of 1.2 mg/kg/day (0.4 mg/kg TID) starting on day 12 in the morning and continued TID at approximately 6 hours intervals. The last dose was administered on day 14 one hour prior to challenge. The total number of doses were 8 doses or a total of […] hBD-2. Mice were then intranasally (IN) challenged with HDM on day 14 (HDM 25 μg in 50 μL of saline).
Lung function: Starting 48 hours after HDM challenge, measurements of lung resistance and lung compliance were carried out after methacholine challenge (3.125 MCH1; 6.25 MCH2; 12.5 MCH3 and 25 mg/mL MCH4) by anaesthetized, cannulated mice using DSI's Buxco Finepoint RC system. Data are represented as airway resistance at 10 mg/kg methacholine and as dose responsive curves.

[2] = tested on: murine house dust mite driven model of allergic asthma; test: Cell counts in BALF, prophylactic treatment in HDM asthma model (Example 9); assay type: in vivo, BALB/c mice; details: prophylactic oral 0.4 mg/kg TID day 12 to day 14
Procedure: as §1
Airway inflammation: At 48 hours post challenge, bronchoalveolar lavage was performed washing the lungs with 3 volumes of cold PBS (0.4; 0.3 and 0.3 mL, total 1 mL). Total and differential leucocyte cell counts were determined on an automated haematological analyser Sysmex XT-2000iV.

[3] = prophylactic intranasal 0.4 mg/kg TID day 12 to day 14
[4] = prophylactic oral 0.4 mg/kg TID day 12 to day 14

Q: Which “decrease of pulmonary compliance” value [1, 3] does the source give for “GIGDPVTCLKSGAICHPVFCPRRYKQIGTCGLPGTKCCKKP (disulfide 8-37, 15-30, 20-38 (inferred)) [hBD-2, human beta defensin 2]” here?
A: Its value is “inhibiting”.

Q: What about the “increase of airway resistance” value [1, 3] of the same sequence?
A: Its value is “inhibiting”.

Q: What about the “decrease of pulmonary compliance” value [1, 4] of the same sequence?
A: Its value is “inhibiting”.

Q: What about the “increase of airway resistance” value [1, 4] of the same sequence?
A: Its value is “inhibiting”.

Q: And the “neutrophil counts in BALF” value [2]?
A: The value was “significantly inhibited”.
